The nature of one data set: PAMPA-GIT permeability. Format: in vitro ADME. The settings on record: for Fa%: PAMPA-GIT predicted absorbed fraction, 0–30% low, 30–69% medium, 70–100% high absorption; for Papp at 5 h, 0.5 mM: PAMPA-GIT, room temperature, read-out: Pe (Experimental).
On the set-up of data set [1]: method as in Literature (reference not given). The settings on record: absorbed fraction of PAMPA-GIT controls; ref Literature (reference not given); cited from earlier work. A general note: PAMPA measures passive passage across an artificial lipid membrane.
A further data set can be described thus: PAMPA-BBB permeability. The settings on record: for Papp: PAMPA; for Pe1 (Experimental): replicate 1; for Pe2 (Experimental): replicate 2. Format: in vitro ADME.
Data set [2] has as its system H-1975, non-small cell lung adenocarcinoma. The data set is described as follows: MTT cytotoxicity assay, H-1975. The settings on record: Homo sapiens, NCI-H1975, 72 h, read-out: IC50 (95% CI) H-1975.
Protocol: (§1) The cytotoxicity of the compounds was determined using the MTT assay [13]. Cells were seeded in 96-well plates as follows: 0.7 × 10^5 cells/well for adherent cancer cells, 0.3 × 10^5 cells/well for suspended cancer cells, and 0.2 × 10^5 cells/well for HPBMCs. […] The control group was treated with the vehicle. […] After incubation, the supernatant was decanted and replaced with fresh medium containing MTT (0.5 mg/mL).
A further data set relates to N-87, gastric carcinoma. The data set is described as follows: MTT cytotoxicity assay, N-87. The settings on record: Homo sapiens, 72 h, read-out: IC50 (95% CI) N-87. For orientation: Formazan colour is commonly taken as a measure of viable cells.
For the next data set, the system named is MDA-MB435. Further details: method as in PMID 16722619, PMID 21488686. The settings on record: lowest IC50 value among cancer cell lines; cited from earlier work.
For data set [3], the system named is HCT-116 human colorectal cancer cells (colon carcinoma). The data set is described as follows: MTT cytotoxicity assay, HCT-116. The settings on record: for IC50: Homo sapiens; for SI HPBMC/HCT-116: IC50 for HPBMC/IC50 for the tumor cell line, 72 h.
Protocol: as §1
Data set [4] deals with HPBMC, human peripheral blood mononuclear cells. The data set is described as follows: MTT cytotoxicity assay, HPBMC. The data set is classed as cell-based. The settings on record: PBMC, 72 h incubation, read-out: IC50 (95% CI) HPBMC. The procedure: Heparinized blood was collected from healthy, non-smoking donors who had not taken any drugs during the 15 days prior to sampling. Human peripheral blood mononuclear cells (HPBMC) were isolated by a standard density-gradient centrifugation method over Ficoll-Hypaque® media (Merck-Sigma-Aldrich, St. Louis, MO, USA). HPBMC were washed and resuspended in RPMI-1640 medium supplemented with 20% fetal bovine serum, 2 mM glutamine, 100 U/mL penicillin, and 100 µg/mL streptomycin at 37 °C with 5% CO2. Phytohemagglutinin (3%) was added at the beginning of the culture.
The cytotoxicity of the compounds was determined using the MTT assay. Cells were seeded in 96-well plates as follows: 0.7 × 10^5 cells/well for adherent cancer cells, 0.3 × 10^5 cells/well for suspended cancer cells, and 0.2 × 10^5 cells/well for HPBMCs. The treatments were dissolved in DMSO and added to each well using an automated liquid handler for high-throughput screening (Biomek 3000—Beckman Coulter, Inc., Fullerton, CA, USA) and incubated for either 24, 48, and 72 h. The control group was treated with the vehicle. […] After incubation, the supernatant was decanted and replaced with fresh medium containing MTT (0.5 mg/mL). Three hours later, the MTT’s formazan product was dissolved in 150 µL of pure DMSO, and absorbance was measured at 595 nm (DTX 880 Multimode Detector, Beckman Coulter, Inc., Pasadena, CA, USA).
Data were presented as mean ± standard error of the mean (SEM) from three independent experiments performed in triplicate, calculated using Prism 8.0 (GraphPad/Intuitive Software for Science, San Diego, CA, USA). The IC50 of the compounds was obtained using a non-linear regression of the cytotoxicity curves.

Data set [5] relates to PC-9, lung adenocarcinoma (overexpressed EGFR with L858R mutation). Description: MTT cytotoxicity assay, PC-9. The settings on record: for SI HPBMC/PC-9: IC50 for HPBMC/IC50 for the tumor cell line.
Protocol: as §1
For the next data set, the system named is SF-295, glioblastoma. Description: MTT cytotoxicity assay, SF-295. The settings on record: Homo sapiens, SF-295, 72 h, read-out: IC50 (95% CI) SF-295.
The test system of data set [6] is PC-3, prostate adenocarcinoma. Description: MTT cytotoxicity assay, PC-3. The settings on record: Homo sapiens, 72 h, read-out: IC50 (95% CI) PC-3.
Protocol: as §1
A further data set deals with MDA -MB231. The arrangement: method as in PMID 23459143. The settings on record: 24 h incubation; cited from earlier work.
In a further data set the test system is MCF-7. The arrangement: method as in PMID 23459143. The settings on record: 24 h incubation; cited from earlier work.
Where [7] appears, read: HCT-116, 72 h, read-out: IC50 (95% CI) HCT-116.
[8] abbreviates: Homo sapiens, 72 h, read-out: IC50 (95% CI) PC-9.

Like-named read-outs stand apart in the source and are kept apart here. Some results are limits rather than exact numbers.

We go through eleven compounds from paper PMC10144566, “Pharmacokinetic Profile Evaluation of Novel Combretastatin Derivative, LASSBio-1920, as a Promising Colorectal Anticancer Agent” (Pharmaceutics, 2023).

Protocol for N-87, gastric carcinoma: as §1
Protocol for PAMPA-BBB permeability: (§2) For this, two 96-well plates were placed one above the other, and between them, an artificial hydrophobic polyvinylidene fluoride (PVDF) membrane, which was impregnated with a lipid solution. The top plate works as the donor compartment and the bottom one as the receiver compartment.
Parallel artificial membrane permeation assay for the blood–brain barrier (PAMPA-BBB): It was performed according to the previously reported [26] method established by Lu and coworkers [27].
Description for PAMPA-GIT permeability: as §2
Parallel artificial membrane permeation assay for gastrointestinal tract (GIT-PAMPA): 1% (w/v) phosphatidylcholine was mixed with dodecane as a lipid solution to impregnate the PVDF membrane between the donor and receiver plates to stimulate intestinal permeability. […] A total of 180 µL of the mixture of PBS and DMSO (v/v 95:5) was added to the recipient plate, and 180 µL of the test solution was added to the donor plate. Immediately and carefully, the donor plate was placed above the receiver plate and incubated for 5 h at room temperature. The solution captured on the receptor plate was removed and subsequently analyzed by a UV detector (SpectraMax 5®—Molecular Devices, Sao Jose, CA, USA). The experiments were performed in quadruplicate.
Protocol for SF-295, glioblastoma: as §1

In the case of `CCn1cc(C(=O)O)c(=O)c2cc(F)c(N3CCNCC3)cc21` [Norfloxacin], in “PAMPA-GIT permeability”, the Fa% was 51.39%.
For `CO/N=C(\C(=O)N[C@@H]1C(=O)N2C(C(=O)O)=C(CSc3nc(=O)c(=O)[nH]n3C)CS[C@H]12)c1csc(N)n1` [Ceftriaxone], in data set [1], the “Fa (Literature)” value is 1.
Regarding `CNC(=C[N+](=O)[O-])NCCSCc1ccc(CN(C)C)o1` [Ranitidine], in “PAMPA-GIT permeability”, the Fa% is recorded as 16.50% and the Papp at 5 h, 0.5 mM is 0.2 ×10⁻⁶ cm/s.
Take `CCn1cc(C(=O)O)c(=O)c2cc(F)c(N3CCNCC3)nc21` [Enoxacin]: in “PAMPA-BBB permeability” (PAMPA-BBB classification: absorbed by the Central Nervous System, read-out: CNS Permeability), the Papp was below 1.13 ×10⁻⁶ cm/s. For the same compound, the Papp in the data set “PAMPA-BBB permeability” (PAMPA-BBB, mean, read-out: Pe (Experimental Mean)) was 0.3 ×10⁻⁶ cm/s. In the data set “PAMPA-BBB permeability” (PAMPA-BBB), the “Pe1 (Experimental)” value is reported as 0.48 10–6 cm/s and the “Pe2 (Experimental)” value is 0.06 10–6 cm/s.
With `Cn1c(=O)c2c(ncn2C)n(C)c1=O` [Caffeine], in the data set “PAMPA-BBB permeability” (PAMPA-BBB), the “Pe1 (Experimental)” value is on record as 0.36 10–6 cm/s and the “Pe2 (Experimental)” value is listed as −0.10 10–6 cm/s.
`CCN(CC)CCNC(=O)c1c(C)[nH]c(/C=C2\C(=O)Nc3ccc(F)cc32)c1C` [SUNITINIB, Sunitinib]: the IC50 (commonly the point on the concentration scale where inhibition reaches its midpoint) in data set [2] is 4480 nM; with N-87, gastric carcinoma, 10900 nM.
With `O=c1ccc2ccccc2o1` [Coumarin], the Papp at 5 h, 0.5 mM in the data set “PAMPA-GIT permeability” worked out at 26 ×10⁻⁶ cm/s.
With `COc1cc(C(=O)NN=Cc2ccccc2)cc(OC)c1OC` [LASSBio-1586], the IC50 was 64 nM in the data set with MDA-MB435; 320 nM in [3] (setting [7]); 1340 nM in [4]; 750 nM in data set [5] (setting [8]); 2830 nM in data set [2]; 260 nM in the data set on SF-295, glioblastoma. Further, the IC50 in [6] came to 920 nM; in the data set on N-87, gastric carcinoma, 820 nM. For the same compound, the “SI HPBMC/HCT-116” value in [3] is listed as 4.2. The “SI HPBMC/PC-9” value in [5] (72 h) amounted to 1.8.
As for `CCOc1cc2ncc(C#N)c(Nc3ccc(F)c(Cl)c3)c2cc1NC(=O)/C=C/CN(C)C` [PELITINIB, Pelitinib], the IC50 in data set [5] (read-out: IC50 (95% CI) PC-9, 72 h incubation, MTT) came to 530 nM; in data set [2] it was 4400 nM; in the data set with N-87, gastric carcinoma, 330 nM.
Consider `O=C(O)Cc1ccccc1Nc1c(Cl)cccc1Cl` [Diclofenac], for which the “Fa (Literature)” value in data set [1] is 100. The Fa% in the data set “PAMPA-GIT permeability” is 100.0%.
`COc1ccc(/C=C\c2cc(OC)c(OC)c(OC)c2)cc1O` [CA4, Combretastatin A-4]: the IC50 is 110 nM with MDA -MB231; 200 nM in data set [3] (HCT-116, 48 h, read-out: IC50 (95% CI) HCT-116 48 h); 2.1 nM in data set [3] (setting [7]); 2.1 nM in [3] (HCT-116, 72 h, read-out: IC50 (95% CI) HCT-116 72 h); 4.7 nM in data set [4]; 2600 nM in [5] (Homo sapiens, 24 h, read-out: IC50 (95% CI) PC-9 24 h). Moreover, the IC50 worked out at 1380 nM in [5] (Homo sapiens, 48 h, read-out: IC50 (95% CI) PC-9 48 h); 110 nM in data set [5] (setting [8]); 110 nM in data set [5] (Homo sapiens, 72 h, read-out: IC50 (95% CI) PC-9 72 h); 35 nM in data set [2]; 8 nM with SF-295, glioblastoma; 8 nM in data set [6]. The IC50 is 10 nM with MCF-7 and 3340 nM in the data set with N-87, gastric carcinoma. Further, in data set [3], the “SI HPBMC/HCT-116” value is 2.24. Further, the “SI HPBMC/PC-9” value in data set [5] (72 h) is 0.043.
